The OPERA property sets (Mansouri et al. 2018)

details: not given

Q: For `CN(C)CCCCCCN(C)C`, which boiling point is on record?
A: 210 °C

Q: And the ready biodegradability?
A: not readily biodegradable

Q: For `CC(C)(C)ON=O`, which boiling point is on record?
A: 63 °C

Q: What does the source list for `N#Cc1ccc2ccccc2c1`?
A: boiling point: 306 °C; melting point: 66 °C

Q: Which boiling point does the source give for `O=C(CCl)C(Cl)Cl` here?
A: 172 °C

Q: With `CCC(C)SC(C)CC` (stereo not drawn) as the molecule, how does the boiling point read?
A: 165 °C

Q: Which boiling point does the source give for `CC1CC(C)NC(C)(C)C1` (stereo not drawn) here?
A: 156 °C

Q: Which melting point does the source give for `CC(C)C[C@@H](NC(=O)[C@@H](O)[C@H](N)Cc1ccccc1)C(=O)O` here?
A: 234 °C

Q: For `Cc1cccc(C(=O)N(NC(=O)c2ccccc2)C(C)(C)C)c1`, which melting point is on record?
A: 211 °C

Q: Which melting point does the source give for `O=C(O)c1ccc([N+](=O)[O-])cc1Cl` here?
A: 140 °C

Q: For `C=C(C)C(=O)NCO`, which melting point is on record?
A: -37 °C

Q: With `CC(C)C12C=CC(C)(CC1)OO2` (stereo not drawn) as the molecule, how does the melting point read?
A: 3.3 °C

Q: Which results are given for `SC1CCCCC1`?
A: boiling point: 159 °C; log10 vapour pressure (mmHg): 0.598

Q: For `Cc1ccc2c(c1[N+](=O)[O-])C(=O)c1ccccc1C2=O`, which melting point is on record?
A: 270 °C

Q: For `COc1c(C)cccc1C`, which boiling point is on record?
A: 182 °C

Q: For `Clc1cc(Cl)c(-c2c(Cl)cc(Cl)cc2Cl)c(Cl)c1`, which log10 Koa is on record?
A: 8.99

Q: What about the log10 Koc (L/kg) of the same molecule?
A: 6.08

Q: And the log10 vapour pressure (mmHg)?
A: -4.92

Q: Which melting point does the source give for `C[C@@H](N)[C@@H](O)c1ccccc1` here?
A: 101 °C

Q: Which melting point does the source give for `CCCCCCCCCCCC(=O)OCCOCCO` here?
A: 17.5 °C

Q: Which melting point does the source give for `CCC(=O)c1ccc(Cl)cc1` here?
A: 37.3 °C

Q: With `CCC(C)(C)OC(N)=O` as the molecule, how does the melting point read?
A: 86 °C

Q: Which melting point does the source give for `CC(CC(C)(C)O)OC(O)C(Cl)(Cl)Cl` (stereo not drawn) here?
A: 103 °C

Q: For `Cc1c(Cl)c(C)c(Cl)c(Cl)c1Cl`, which melting point is on record?
A: 223 °C

Q: With `CCCCCC(N)=O` as the molecule, how does the boiling point read?
A: 255 °C

Q: And the melting point?
A: 101 °C

Q: For `CCOC(CCl)OCC`, which boiling point is on record?
A: 157 °C

Q: With `O=C1CCOc2ccccc21` as the molecule, how does the melting point read?
A: 36.5 °C

Q: For `CCC(Br)(CC)C(N)=O`, which melting point is on record?
A: 67 °C

Q: With `CC(c1ccccc1)C1CCCCC1` (stereo not drawn) as the molecule, how does the boiling point read?
A: 265 °C

Q: For `CC(C)COCc1ccccc1`, which boiling point is on record?
A: 212 °C

Q: What does the source list for `C=Cc1cccc(C=C)c1`?
A: log10 vapour pressure (mmHg): -0.237; melting point: -52.3 °C; ready biodegradability: not readily biodegradable

Q: Which melting point does the source give for `Nc1ccc(S)cc1` here?
A: 46 °C

Q: Which melting point does the source give for `CNCCc1ccc(O)c(O)c1` here?
A: 188 °C

Q: Which boiling point does the source give for `CC1=CCC(C(C)C)C=C1` (stereo not drawn) here?
A: 172 °C

Q: And the log10 vapour pressure (mmHg)?
A: 0.147

Q: With `Nc1ccc(S(=O)(=O)NCc2ccccc2)cc1` as the molecule, how does the melting point read?
A: 171 °C

Q: With `CNO` as the molecule, how does the log10 vapour pressure (mmHg) read?
A: 0.222

Q: What about the melting point of the same molecule?
A: 87.5 °C

Q: Which boiling point does the source give for `CC(C)(C)c1ccc(C(C)(C)C)o1` here?
A: 210 °C

Q: With `COC(=O)c1ccccc1[N+](=O)[O-]` as the molecule, how does the boiling point read?
A: 275 °C

Q: What about the melting point of the same molecule?
A: -13 °C

Q: With `CC1=CC(=O)CC1` as the molecule, how does the boiling point read?
A: 158 °C

Q: For `Cc1cc(Br)cc([N+](=O)[O-])c1`, which boiling point is on record?
A: 270 °C

Q: And the melting point?
A: 83 °C

Q: With `CCCC(C)(CC)CC` as the molecule, how does the boiling point read?
A: 141 °C

Q: For `O=C(CCl)Oc1ccccc1`, which boiling point is on record?
A: 232 °C

Q: And the melting point?
A: 44.5 °C

Q: For `NCCOCCO`, which boiling point is on record?
A: 221 °C

Q: And the log10 vapour pressure (mmHg)?
A: -2.81

Q: With `ClC=C(Cl)CCl` as the molecule, how does the boiling point read?
A: 142 °C

Q: What about the log10 vapour pressure (mmHg) of the same molecule?
A: 0.643

Q: Which melting point does the source give for `CN(C)CC/C=C1\c2ccccc2Sc2ccc(Cl)cc21` here?
A: 97.5 °C

Q: With `CC1=C(C)C(=O)OC1=O` as the molecule, how does the boiling point read?
A: 223 °C

Q: And the melting point?
A: 96 °C

Q: With `CCC(C(=O)OC)c1ccccc1` (stereo not drawn) as the molecule, how does the boiling point read?
A: 228 °C

Q: And the melting point?
A: 77.5 °C

Q: With `CCSC(=O)N(CC)C1CCCCC1` as the molecule, how does the log10 Koc (L/kg) read?
A: 2.54

Q: What about the log10 vapour pressure (mmHg) of the same molecule?
A: -2.7

Q: What about the melting point of the same molecule?
A: 11.5 °C

Q: What about the ready biodegradability of the same molecule?
A: not readily biodegradable

Q: With `CC(=O)N1CCC(=O)CC1` as the molecule, how does the boiling point read?
A: 218 °C

Q: Which melting point does the source give for `NNc1nncc2ccccc12` here?
A: 172 °C

Q: With `CCC[C@H]1CCCCC1=O` as the molecule, how does the boiling point read?
A: 197 °C

Q: Which melting point does the source give for `O=C(c1ccc(O)c(O)c1)c1c(O)cc(O)cc1O` here?
A: 222 °C

Q: For `CC(C)(C)c1ccc(O)cc1`, which ready biodegradability is on record?
A: not readily biodegradable

Q: For `CC(O)CC(C)O` (stereo not drawn), which boiling point is on record?
A: 199 °C

Q: And the ready biodegradability?
A: readily biodegradable

Q: For `c1ccc(CN(Cc2ccccc2)Cc2ccccc2)cc1`, which boiling point is on record?
A: 385 °C

Q: And the melting point?
A: 91.5 °C

Q: For `Sc1ccc(Cl)cc1`, which boiling point is on record?
A: 206 °C

Q: And the melting point?
A: 61 °C

Q: With `O=Cc1ccc([N+](=O)[O-])cc1[N+](=O)[O-]` as the molecule, how does the melting point read?
A: 72 °C

Q: For `CC(C)OC(=O)C(C)C`, which boiling point is on record?
A: 121 °C

Q: And the log10 vapour pressure (mmHg)?
A: 1.2

Q: For `CC(C)CCI`, which boiling point is on record?
A: 147 °C

Q: Which melting point does the source give for `O=S(=O)(CCl)c1ccccc1` here?
A: 54 °C

Q: With `CC(C)OC(=O)CCl` as the molecule, how does the boiling point read?
A: 150 °C

Q: What about the log10 vapour pressure (mmHg) of the same molecule?
A: 0.613

Q: Which log10 Koc (L/kg) does the source give for `COc1nn(CSP(=S)(OC)OC)c(=O)s1` here?
A: 1.53

Q: And the log10 vapour pressure (mmHg)?
A: -5.47

Q: And the melting point?
A: 39 °C

Q: For `CC[C@@H](CO)NC(=O)[C@@H]1C=C2c3cccc4[nH]cc(c34)C[C@H]2N(C)C1`, which melting point is on record?
A: 172 °C

same assay, conditions: fish

Q: Which results are given for `CC(C)(c1ccc(OC(F)(F)C(F)F)cc1)c1ccc(OC(F)(F)C(F)F)cc1`?
A: log10 BCF: 4.35; log10 biotransformation half-life (days): 2.79

Q: For `Cc1ccccc1OP(=O)(Oc1ccccc1C)Oc1ccccc1C`, which log10 biotransformation half-life (days) is on record?
A: 0.5

Q: Which log10 BCF does the source give for `Clc1cccc2cccc(Cl)c12` here?
A: 3.79

Q: For `CC(C)(O)C(Cl)(Cl)Cl`, which log10 BCF is on record?
A: 0.23

Q: For `C=Cc1cccc(C=C)c1`, which log10 BCF is on record?
A: 2.54

Q: What about the log10 biotransformation half-life (days) of the same molecule?
A: 0.59

Q: Which results are given for `CC(C)(C)c1ccc(O)cc1`?
A: log10 BCF: 1.83; log10 biotransformation half-life (days): -0.87

Q: With `COc1nn(CSP(=S)(OC)OC)c(=O)s1` as the molecule, how does the log10 BCF read?
A: 0.74

Q: What about the log10 biotransformation half-life (days) of the same molecule?
A: -1.15
